According to article PMC8155809 (The Journal of General Physiology, 2021):

Molecular target: T1, WT TREK-2 (Homo sapiens, UniProt P57789)
T1 construct: full-length WT TREK-2 channels, we examined its effects on the mean open time of TREK-2 channels expressed in HEK293 cells; expressed in transfected cells; host or cells: HEK293 cells, transient transfection with pcDNA3
T1 sequence (P57789 1-543 isoform P57789-4): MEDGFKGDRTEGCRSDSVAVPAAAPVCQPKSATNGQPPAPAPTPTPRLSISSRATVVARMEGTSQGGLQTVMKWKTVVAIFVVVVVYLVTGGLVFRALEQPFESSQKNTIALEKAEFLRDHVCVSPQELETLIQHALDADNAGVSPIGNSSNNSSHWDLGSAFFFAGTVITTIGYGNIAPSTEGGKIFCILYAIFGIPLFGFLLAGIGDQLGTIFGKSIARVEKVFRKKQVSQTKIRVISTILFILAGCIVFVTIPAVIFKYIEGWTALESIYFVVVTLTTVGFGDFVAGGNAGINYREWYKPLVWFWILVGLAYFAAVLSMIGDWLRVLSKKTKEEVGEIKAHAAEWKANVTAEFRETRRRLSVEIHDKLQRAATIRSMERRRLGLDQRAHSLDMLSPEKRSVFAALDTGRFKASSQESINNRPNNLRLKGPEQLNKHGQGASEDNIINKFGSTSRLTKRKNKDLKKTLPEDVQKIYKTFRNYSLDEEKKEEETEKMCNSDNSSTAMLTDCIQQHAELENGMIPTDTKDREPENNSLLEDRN
Assay: Single-channel recordings of WT TREK-2 in excised patches from HEK293 cells
Assay type: cell-based
Procedure: Full-length human TREK-2 isoform 3 (NCBI accession no. NP_612191) was used throughout this study and was subcloned into the pFAW vector for expression in oocytes. The truncated construct used to generate protein (TREK-2ΔN/ΔC) is identical to that used previously to obtain crystal structures ([Dong et al., 2015]); it contains a deletion of 71 residues at the N terminus and 213 residues at the C terminus. […] Desamino chloro-fluoxetine (Toronto Research Chemicals) was dissolved in chloroform and diluted to working concentrations on the day of experimenting (maximum final concentration was 0.01%).
HEK293 cells were cultured in DMEM (Sigma) containing 10% FBS (Life Technologies), 3 mM glucose, and 2 mM glutamine at 37°C in a humidified atmosphere of 5% CO2/[…] at 37°C. Cells were transiently transfected with 0.2 µg channel pcDNA3 per dish using FuGENE 6 according to the manufacturer’s instructions. Cells were used 1–2 d after transfection.
For currents recorded in Xenopus laevis oocytes, giant-patch electrodes were pulled from thick-walled borosilicate glass and polished to give pipette resistances of ∼0.3–0.5 MΩ when filled with patch solution. Pipette solution contained (in mM) 116 NMDG, 4 KCl, 1 MgCl2, 3.6 CaCl2, and 10 HEPES (pH 7.4), while the bath solution contained (in mM) 120 KCl, 1 NaCl, 2 EGTA, and 10 HEPES (pH 7.3). Patches were perfused via a gravity-flow perfusion system and a HEKA EPC 10 USB single computer–controlled amplifier was used and currents recorded using a Patchmaster v2 × 90.5 (HEKA Electronics), filtered at 1 kHz, and sampled at 10 kHz. For currents recorded in HEK293 cells, patch electrodes were pulled from thick-walled borosilicate glass and polished to give pipette resistances of ∼3–5 MΩ when filled with patch solution. The currents were recorded from excised patches with both intracellular and extracellular solution containing 200 mM KCl and 10 mM HEPES (pH 6.0 with KOH). Patches were perfused via a gravity-flow perfusion system. Data were acquired with pClamp and recorded using an Axopatch 200B (Molecular Devices), filtered at 5 kHz, and sampled at 200 kHz. Single-channel currents were analyzed in an identical manner to those obtained from bilayers (see above).

mean Po (10 µM NFx in the presence of 100 µM ML335, −40 mV): 0.69 ± 0.2
amplitude ratio of γ (10 µM NFx in the presence of 100 µM ML335 vs ML335 alone, −40 mV): 1.00 ± 0.01
reduction of τo (mean open time) (10 µM NFx, Fig. S6): ~30%
reduction of Po of WT TREK-2 channel (10 µM NFx, no further change in the presence of NFx, as in Fig. S6): 79 ± 0.05%
τo (mean open time) (10 µM NFx, −10 mV): 0.89 ms
reduction in γ (single-channel current amplitude) (10 µM, −40 mV (Fig. 6B)): 11 ± 7%
reduction of channel Po (10 µM, −40 mV (Fig. 6B)): 70 ± 0.03%
SMILES: NCCC(Oc1ccc(C(F)(F)F)cc1)c1ccccc1 (stereo not shown) [NFx, norfluoxetine]
